Measurements as given in ChEMBL document CHEMBL2396621, “Design, synthesis and biological evaluation of 2-mercapto-3-phenethylquinazoline bearing anilide fragments as potential antitumor agents: molecular docking study” (2013).

How the values were obtained:
Assay type in all cases: functional
NCI-H322M = assay: Cytotoxicity against human NCI-H322M cells assessed as growth inhibition at 10 uM after 48 hrs by coulter counter analysis; conditions: read-out: GI
NCI-H23 = assay: Cytotoxicity against human NCI-H23 cells assessed as growth inhibition at 10 uM after 48 hrs by coulter counter analysis; conditions: NCI-H23, 48 h, read-out: GI
HOP-62 = assay: Cytotoxicity against human HOP62 cells assessed as growth inhibition at 10 uM after 48 hrs by coulter counter analysis; conditions: HOP-62, 48 h, read-out: GI
[1] = Cytotoxicity against human EKVX cells assessed as growth inhibition at 10 uM after 48 hrs by coulter counter analysis; conditions: read-out: GI
A549 = assay: Cytotoxicity against human A549 cells assessed as growth inhibition at 10 uM after 48 hrs by coulter counter analysis; conditions: A549, 48 h, read-out: GI
T47D = assay: Cytotoxicity against human T47D cells assessed as growth inhibition at 10 uM after 48 hrs by coulter counter analysis; conditions: read-out: GI
BT-549 = assay: Cytotoxicity against human BT549 cells assessed as growth inhibition at 10 uM after 48 hrs by coulter counter analysis; conditions: BT-549, 48 h, read-out: GI
Hs-578T = assay: Cytotoxicity against human Hs578T cells assessed as growth inhibition at 10 uM after 48 hrs by coulter counter analysis; conditions: read-out: GI
PC-3 = assay: Cytotoxicity against human PC3 cells assessed as growth inhibition at 10 uM after 48 hrs by coulter counter analysis; conditions: PC-3, 48 h, read-out: GI
UO-31 = assay: Cytotoxicity against human UO31 cells assessed as growth inhibition at 10 uM after 48 hrs by coulter counter analysis; conditions: UO-31, 48 h, read-out: GI
TK-10 = assay: Cytotoxicity against human TK10 cells assessed as growth inhibition at 10 uM after 48 hrs by coulter counter analysis; conditions: TK-10, 48 h, read-out: GI
RXF 393 = assay: Cytotoxicity against human RXF393 cells assessed as growth inhibition at 10 uM after 48 hrs by coulter counter analysis; conditions: RXF 393, 48 h, read-out: GI
A498 = assay: Cytotoxicity against human A498 cells assessed as growth inhibition at 10 uM after 48 hrs by coulter counter analysis; conditions: A498, 48 h, read-out: GI
SK-OV-3 = assay: Cytotoxicity against human SKOV3 cells assessed as growth inhibition at 10 uM after 48 hrs by coulter counter analysis; conditions: SK-OV-3, 48 h, read-out: GI
786-0 = assay: Cytotoxicity against human 786-0 cells assessed as growth inhibition at 10 uM after 48 hrs by coulter counter analysis; conditions: 786-0, 48 h, read-out: GI
[2] = Cytotoxicity against human NCI-ADR-RES cells assessed as growth inhibition at 10 uM after 48 hrs by coulter counter analysis; conditions: read-out: GI
OVCAR-8 = assay: Cytotoxicity against human OVCAR8 cells assessed as growth inhibition at 10 uM after 48 hrs by coulter counter analysis; conditions: OVCAR-8, 48 h, read-out: GI
OVCAR-5 = assay: Cytotoxicity against human OVCAR5 cells assessed as growth inhibition at 10 uM after 48 hrs by coulter counter analysis; conditions: OVCAR-5, 48 h, read-out: GI
OVCAR-4 = assay: Cytotoxicity against human OVCAR4 cells assessed as growth inhibition at 10 uM after 48 hrs by coulter counter analysis; conditions: OVCAR-4, 48 h, read-out: GI
OVCAR-3 = assay: Cytotoxicity against human OVCAR3 cells assessed as growth inhibition at 10 uM after 48 hrs by coulter counter analysis; conditions: OVCAR-3, 48 h, read-out: GI
IGROV-1 = assay: Cytotoxicity against human IGROV1 cells assessed as growth inhibition at 10 uM after 48 hrs by coulter counter analysis; conditions: IGROV-1, 48 h, read-out: GI
UACC-62 = assay: Cytotoxicity against human UACC62 cells assessed as growth inhibition at 10 uM after 48 hrs by coulter counter analysis; conditions: UACC-62, 48 h, read-out: GI
MDA-MB-435 = assay: Cytotoxicity against human MDA-MB-435 cells assessed as growth inhibition at 10 uM after 48 hrs by coulter counter analysis; conditions: MDA-MB-435, 48 h, read-out: GI
Malme-3M = assay: Cytotoxicity against human MALME-3M cells assessed as growth inhibition at 10 uM after 48 hrs by coulter counter analysis; conditions: read-out: GI
LOX IMVI = assay: Cytotoxicity against human LOXIMVI cells assessed as growth inhibition at 10 uM after 48 hrs by coulter counter analysis; conditions: read-out: GI
U-251 = assay: Cytotoxicity against human U251 cells assessed as growth inhibition at 10 uM after 48 hrs by coulter counter analysis; conditions: U-251, 48 h, read-out: GI
SNB-75 = assay: Cytotoxicity against human SNB75 cells assessed as growth inhibition at 10 uM after 48 hrs by coulter counter analysis; conditions: SNB-75, 48 h, read-out: GI
SNB-19 = assay: Cytotoxicity against human SNB19 cells assessed as growth inhibition at 10 uM after 48 hrs by coulter counter analysis; conditions: SNB-19, 48 h, read-out: GI
SF-539 = assay: Cytotoxicity against human SF539 cells assessed as growth inhibition at 10 uM after 48 hrs by coulter counter analysis; conditions: SF-539, 48 h, read-out: GI
SF-268 = assay: Cytotoxicity against human SF268 cells assessed as growth inhibition at 10 uM after 48 hrs by coulter counter analysis; conditions: SF-268, 48 h, read-out: GI
SW-620 = assay: Cytotoxicity against human SW620 cells assessed as growth inhibition at 10 uM after 48 hrs by coulter counter analysis; conditions: SW-620, 48 h, read-out: GI
KM12 = assay: Cytotoxicity against human KM12 cells assessed as growth inhibition at 10 uM after 48 hrs by coulter counter analysis; conditions: KM12, 48 h, read-out: GI
HT-29 = assay: Cytotoxicity against human HT-29 cells assessed as growth inhibition at 10 uM after 48 hrs by coulter counter analysis; conditions: HT-29, 48 h, read-out: GI
HCT-15 = assay: Cytotoxicity against human HCT15 cells assessed as growth inhibition at 10 uM after 48 hrs by coulter counter analysis; conditions: HCT-15, 48 h, read-out: GI
HCT-116 = assay: Cytotoxicity against human HCT116 cells assessed as growth inhibition at 10 uM after 48 hrs by coulter counter analysis; conditions: HCT-116, 48 h, read-out: GI
HCC 2998 = assay: Cytotoxicity against human HCC2998 cells assessed as growth inhibition at 10 uM after 48 hrs by coulter counter analysis; conditions: HCC 2998, 48 h, read-out: GI
COLO 205 = assay: Cytotoxicity against human COLO205 cells assessed as growth inhibition at 10 uM after 48 hrs by coulter counter analysis; conditions: COLO 205, 48 h, read-out: GI
NCI-H460 = assay: Cytotoxicity against human NCI-H460 cells assessed as growth inhibition at 10 uM after 48 hrs by coulter counter analysis; conditions: NCI-H460, 48 h, read-out: GI

SMILES	inhibition of growth at 10 µM (NCI-H322M) [%]	inhibition of growth at 10 µM (NCI-H23) [%]	inhibition of growth at 10 µM (HOP-62) [%]	inhibition of growth at 10 µM [1] [%]	inhibition of growth at 10 µM (A549) [%]	inhibition of growth at 10 µM (T47D) [%]	inhibition of growth at 10 µM (BT-549) [%]	inhibition of growth at 10 µM (Hs-578T) [%]	inhibition of growth at 10 µM (PC-3) [%]	inhibition of growth at 10 µM (UO-31) [%]	inhibition of growth at 10 µM (TK-10) [%]	inhibition of growth at 10 µM (RXF 393) [%]	inhibition of growth at 10 µM (A498) [%]	inhibition of growth at 10 µM (SK-OV-3) [%]	inhibition of growth at 10 µM (786-0) [%]	inhibition of growth at 10 µM [2] [%]	inhibition of growth at 10 µM (OVCAR-8) [%]	inhibition of growth at 10 µM (OVCAR-5) [%]	inhibition of growth at 10 µM (OVCAR-4) [%]	inhibition of growth at 10 µM (OVCAR-3) [%]	also measured
O=C(CSc1nc2ccccc2c(=O)n1CCc1ccccc1)Nc1ccccc1	< 10	11	< 10	16	16	13	< 10	< 10	10	< 10	< 10	< 10	11	14	< 10	< 10	< 10	< 10	< 10	< 10	inhibition of growth at 10 µM (IGROV-1): < 10%; inhibition of growth at 10 µM (UACC-62): 16%; inhibition of growth at 10 µM (MDA-MB-435): < 10%; inhibition of growth at 10 µM (Malme-3M): < 10%; inhibition of growth at 10 µM (LOX IMVI): 11%; inhibition of growth at 10 µM (U-251): < 10%; inhibition of growth at 10 µM (SNB-75): 12%; inhibition of growth at 10 µM (SNB-19): < 10%; inhibition of growth at 10 µM (SF-539): < 10%; inhibition of growth at 10 µM (SF-268): < 10%; inhibition of growth at 10 µM (SW-620): < 10%; inhibition of growth at 10 µM (KM12): < 10%; inhibition of growth at 10 µM (HT-29): < 10%; inhibition of growth at 10 µM (HCT-15): < 10%; inhibition of growth at 10 µM (HCT-116): 15%; inhibition of growth at 10 µM (HCC 2998): < 10%; inhibition of growth at 10 µM (COLO 205): < 10%; inhibition of growth at 10 µM (NCI-H460): < 10%
O=C(CSc1nc2ccccc2c(=O)n1CCc1ccccc1)Nc1cc(Cl)ccc1C(=O)O	< 10	< 10	< 10	20	< 10	< 10	10	< 10	< 10	18	< 10	< 10	10	< 10	< 10	< 10	< 10	< 10	< 10	< 10	inhibition of growth at 10 µM (IGROV-1): < 10%; inhibition of growth at 10 µM (UACC-62): < 10%; inhibition of growth at 10 µM (MDA-MB-435): < 10%; inhibition of growth at 10 µM (Malme-3M): < 10%; inhibition of growth at 10 µM (LOX IMVI): < 10%; inhibition of growth at 10 µM (U-251): < 10%; inhibition of growth at 10 µM (SNB-75): 20%; inhibition of growth at 10 µM (SNB-19): < 10%; inhibition of growth at 10 µM (SF-539): < 10%; inhibition of growth at 10 µM (SF-268): < 10%; inhibition of growth at 10 µM (SW-620): < 10%; inhibition of growth at 10 µM (KM12): < 10%; inhibition of growth at 10 µM (HT-29): < 10%; inhibition of growth at 10 µM (HCT-15): < 10%; inhibition of growth at 10 µM (HCT-116): < 10%; inhibition of growth at 10 µM (HCC 2998): < 10%; inhibition of growth at 10 µM (COLO 205): < 10%; inhibition of growth at 10 µM (NCI-H460): < 10%
COc1cc(NC(=O)CCSc2nc3ccccc3c(=O)n2CCc2ccccc2)cc(OC)c1OC	28	28	45	34	29	47	13	67	25	22	17	12	37	44	29	13	28	< 10	51	11	inhibition of growth at 10 µM (IGROV-1): 21%; inhibition of growth at 10 µM (UACC-62): 30%; inhibition of growth at 10 µM (MDA-MB-435): 38%; inhibition of growth at 10 µM (Malme-3M): 77%; inhibition of growth at 10 µM (LOX IMVI): 54%; inhibition of growth at 10 µM (U-251): 25%; inhibition of growth at 10 µM (SNB-75): 38%; inhibition of growth at 10 µM (SNB-19): 12%; inhibition of growth at 10 µM (SF-539): 70%; inhibition of growth at 10 µM (SF-268): 26%; inhibition of growth at 10 µM (SW-620): 14%; inhibition of growth at 10 µM (KM12): 39%; inhibition of growth at 10 µM (HT-29): 18%; inhibition of growth at 10 µM (HCT-15): 18%; inhibition of growth at 10 µM (HCT-116): 40%; inhibition of growth at 10 µM (HCC 2998): < 10%; inhibition of growth at 10 µM (COLO 205): 20%; inhibition of growth at 10 µM (NCI-H460): 17%
Cc1ccc(NC(=O)CSc2nc3ccccc3c(=O)n2CCc2ccccc2)cc1	15	< 10	42	29	21	44	< 10	41	14	< 10	< 10	10	< 10	20	< 10	< 10	27	< 10	< 10	< 10	inhibition of growth at 10 µM (IGROV-1): 20%; inhibition of growth at 10 µM (UACC-62): 20%; inhibition of growth at 10 µM (MDA-MB-435): 17%; inhibition of growth at 10 µM (Malme-3M): 17%; inhibition of growth at 10 µM (LOX IMVI): 14%; inhibition of growth at 10 µM (U-251): 11%; inhibition of growth at 10 µM (SNB-75): 12%; inhibition of growth at 10 µM (SNB-19): 22%; inhibition of growth at 10 µM (SF-539): 19%; inhibition of growth at 10 µM (SF-268): 19%; inhibition of growth at 10 µM (SW-620): 10%; inhibition of growth at 10 µM (KM12): 11%; inhibition of growth at 10 µM (HT-29): < 10%; inhibition of growth at 10 µM (HCT-15): 10%; inhibition of growth at 10 µM (HCT-116): 13%; inhibition of growth at 10 µM (HCC 2998): < 10%; inhibition of growth at 10 µM (COLO 205): 15%; inhibition of growth at 10 µM (NCI-H460): 22%
